Measured values published in paper PMC5786788, “Antimicrobial Octapeptin C4 Analogues Active against Cryptococcus Species” (Antimicrobial Agents and Chemotherapy, 2018).
Values after ≈ are worked out from the molar mass of the structure shown. Like-named read-outs stand apart in the source and are kept apart here.

Tests used:
[1] = system: C. neoformans var. gattii; experiment: microbe, parasite or virus in culture
Protocol: (§1) The MICs of the yeast strains for PMB, PME, and octapeptin C4 and its derivatives were determined in accordance with CLSI M27-A2 guidelines using YNB (Becton Dickinson, USA) medium supplemented with 10 mM ammonium sulfate and 2% glucose, a final inoculum concentration of 1.5 × 10^3 to 2.0 × 10^3 cells/ml, and incubation at 35°C for 72 h ([39]). […] The MICs for PMB, PME, and octapeptin C4 for A. fumigatus were determined in accordance with the CLSI M38-A2 guidelines ([40]) using synthetic RPMI 1640 medium (with glutamine, without bicarbonate and with phenol red; Life Technologies, USA). The final inoculum concentration was 0.4 × 10^4 to 5 × 10^4 cells/ml, with incubation at 35°C for 48 h. […] All assays were completed in triplicate. Fluconazole was used as a positive control where the MIC was determined at both 50% growth (in accordance with CLSI M27-A2 guidelines) and when there was a “no visible growth” reading.

[2] = system: C. neoformans var. neoformans; experiment: microbe, parasite or virus in culture; conditions: Cryptococcus neoformans
Protocol: as §1

OC(Cn1cncn1)(Cn1cncn1)c1ccc(F)cc1F [Fluconazole, fluconazole]
MIC ([1]; Cryptococcus neoformans, ATCC34882, strain ATCC 34882, no visible growth): 6.25 µg/mL (≈ 20.4 µM)
MIC ([1]; Cryptococcus neoformans, read-out: MIC-2, strain 93/980 (CSF France), 50% fungal growth): 1.56 µg/mL (≈ 5.09 µM)
MIC ([1]; Cryptococcus neoformans, read-out: MIC-2, strain B5742 (VGIV CSF India), 50% fungal growth): 3.13 µg/mL (≈ 10.2 µM)
MIC ([1]; Cryptococcus neoformans, read-out: MIC-2, strain R266 (Vancouver Island), 50% fungal growth): 6.25 µg/mL (≈ 20.4 µM)
MIC ([1]; Cryptococcus neoformans, read-out: MIC-2, strain R267 (Vancouver Island), 50% fungal growth): 25 µg/mL (≈ 81.6 µM)
MIC ([1]; Cryptococcus neoformans, read-out: MIC-2, strain R268 (Vancouver Island), 50% fungal growth): 0.78 µg/mL (≈ 2.55 µM)
MIC ([1]; Cryptococcus neoformans, read-out: MIC-2, strain R269 (Vancouver Island), 50% fungal growth): 3.13 µg/mL (≈ 10.2 µM)
MIC ([1]; Cryptococcus neoformans, read-out: MIC-2, strain R270 (Vancouver Island), 50% fungal growth): 3.13 µg/mL (≈ 10.2 µM)
MIC ([1]; Cryptococcus neoformans, strain R266 (Vancouver Island), no visible growth): 12.5 µg/mL (≈ 40.8 µM)
MIC ([1]; Cryptococcus neoformans, strain R267 (Vancouver Island), no visible growth): < 25 µg/mL
MIC ([1]; Cryptococcus neoformans, strain R268 (Vancouver Island), no visible growth): 1.56 µg/mL (≈ 5.09 µM)
MIC ([1]; Cryptococcus neoformans, strain R269 (Vancouver Island), no visible growth): 12.5 µg/mL (≈ 40.8 µM)
MIC ([1]; Cryptococcus neoformans, strain R270 (Vancouver Island), no visible growth): 6.25 µg/mL (≈ 20.4 µM)
MIC ([1]; read-out: MIC-2, strain 96/1120-1 (Brain HIV2 France), 50% fungal growth): 3.13 µg/mL (≈ 10.2 µM)
MIC ([1]; read-out: MIC-2, strain 96/1120-2 (CSF HIV2 France), 50% fungal growth): 6.25 µg/mL (≈ 20.4 µM)
MIC ([1]; read-out: MIC-2, strain B5748 (VGIV HIV India), 50% fungal growth): 3.13 µg/mL (≈ 10.2 µM)
MIC ([1]; strain 96/1120-1 (Brain HIV2 France), no visible growth): 25 µg/mL (≈ 81.6 µM)
MIC ([1]; strain 96/1120-2 (CSF HIV2 France), no visible growth): 25 µg/mL (≈ 81.6 µM)
MIC ([1]; strain B5748 (VGIV HIV India), no visible growth): 12.5 µg/mL (≈ 40.8 µM)
MIC ([2]; read-out: MIC-2, strain WM 01.127 (USA), 50% fungal growth): 6.25 µg/mL (≈ 20.4 µM)
MIC ([2]; read-out: MIC-2, strain WM 02.141 (Russia), 50% fungal growth): 3.13 µg/mL (≈ 10.2 µM)
MIC ([2]; read-out: MIC-2, strain WM 02.142 (Russia), 50% fungal growth): 6.25 µg/mL (≈ 20.4 µM)
MIC ([2]; read-out: MIC-2, strain WM 02.143 (Russia), 50% fungal growth): 6.25 µg/mL (≈ 20.4 µM)
MIC ([2]; read-out: MIC-2, strain WM 02.37 (Canada), 50% fungal growth): 6.25 µg/mL (≈ 20.4 µM)
MIC ([2]; read-out: MIC-2, strain WM 02.52 (Canada), 50% fungal growth): 3.13 µg/mL (≈ 10.2 µM)
MIC ([2]; read-out: MIC-2, strain WM 04.168 (Chile), 50% fungal growth): 6.25 µg/mL (≈ 20.4 µM)
MIC ([2]; read-out: MIC-2, strain WM 04.171 (Thailand, environmental), 50% fungal growth): 6.25 µg/mL (≈ 20.4 µM)
MIC ([2]; read-out: MIC-2, strain WM 05.467 (Brazil, environmental), 50% fungal growth): 6.25 µg/mL (≈ 20.4 µM)
MIC ([2]; read-out: MIC-2, strain WM 05.515 (Peru), 50% fungal growth): 1.56 µg/mL (≈ 5.09 µM)
MIC ([2]; read-out: MIC-2, strain WM 09.109 (Italy, environmental), 50% fungal growth): 3.13 µg/mL (≈ 10.2 µM)
MIC ([2]; read-out: MIC-2, strain WM 09.112 (USA), 50% fungal growth): 3.13 µg/mL (≈ 10.2 µM)
MIC ([2]; read-out: MIC-2, strain WM 10.119 (Australia), 50% fungal growth): 3.13 µg/mL (≈ 10.2 µM)
MIC ([2]; read-out: MIC-2, strain WM 629 (Australia), 50% fungal growth): 3.13 µg/mL (≈ 10.2 µM)
MIC ([2]; read-out: MIC-2, strain WM 1706 (Argentina), 50% fungal growth): 6.25 µg/mL (≈ 20.4 µM)
MIC ([2]; read-out: MIC-2, strain WM 1740 (Chile), 50% fungal growth): 3.13 µg/mL (≈ 10.2 µM)
MIC ([2]; read-out: MIC-2, strain WM 2207 (USA, environmental), 50% fungal growth): 12.5 µg/mL (≈ 40.8 µM)
MIC ([2]; read-out: MIC-2, strain WM 2242 (USA), 50% fungal growth): 1.56 µg/mL (≈ 5.09 µM)
MIC ([2]; read-out: MIC-2, strain WM 2530 (USA), 50% fungal growth): 3.13 µg/mL (≈ 10.2 µM)
MIC ([2]; strain WM 01.127 (USA), no visible growth): 12.5 µg/mL (≈ 40.8 µM)
MIC ([2]; strain WM 02.141 (Russia), no visible growth): 6.25 µg/mL (≈ 20.4 µM)
MIC ([2]; strain WM 02.142 (Russia), no visible growth): 12.5 µg/mL (≈ 40.8 µM)
MIC ([2]; strain WM 02.143 (Russia), no visible growth): 12.5 µg/mL (≈ 40.8 µM)
MIC ([2]; strain WM 02.37 (Canada), no visible growth): 25 µg/mL (≈ 81.6 µM)
MIC ([2]; strain WM 02.52 (Canada), no visible growth): 6.25 µg/mL (≈ 20.4 µM)
MIC ([2]; strain WM 04.168 (Chile), no visible growth): 12.5 µg/mL (≈ 40.8 µM)
MIC ([2]; strain WM 04.171 (Thailand, environmental), no visible growth): 6.25 µg/mL (≈ 20.4 µM)
MIC ([2]; strain WM 05.467 (Brazil, environmental), no visible growth): 12.5 µg/mL (≈ 40.8 µM)
MIC ([2]; strain WM 05.515 (Peru), no visible growth): 6.25 µg/mL (≈ 20.4 µM)
MIC ([2]; strain WM 09.109 (Italy, environmental), no visible growth): 6.25 µg/mL (≈ 20.4 µM)
MIC ([2]; strain WM 09.112 (USA), no visible growth): 12.5 µg/mL (≈ 40.8 µM)
MIC ([2]; strain WM 10.119 (Australia), no visible growth): 6.25 µg/mL (≈ 20.4 µM)
MIC ([2]; strain WM 629 (Australia), no visible growth): 6.25 µg/mL (≈ 20.4 µM)
MIC ([2]; strain WM 1706 (Argentina), no visible growth): 12.5 µg/mL (≈ 40.8 µM)
MIC ([2]; strain WM 1740 (Chile), no visible growth): 6.25 µg/mL (≈ 20.4 µM)
MIC ([2]; strain WM 2207 (USA, environmental), no visible growth): 25 µg/mL (≈ 81.6 µM)
MIC ([2]; strain WM 2242 (USA), no visible growth): 3.13 µg/mL (≈ 10.2 µM)
MIC ([2]; strain WM 2530 (USA), no visible growth): 6.25 µg/mL (≈ 20.4 µM)
